ChEMBL document CHEMBL4800722, “Data for DCP probe BI 605906” (2021)

Legend:
[1] = molecular target: T1, Sodium-dependent dopamine transporter (Homo sapiens, UniProt Q01959); assay: GPCRScan assay: inhibition of DAT; set-up: radioligand conc. used [nm] 3.6 – 16.0, parental cells stable HEK
[2] = molecular target: Inhibitor of nuclear factor kappa-B kinase subunit beta (Homo sapiens, UniProt O14920); assay: Biochemical assay
[3] = molecular target: 5-hydroxytryptamine receptor 1A (Homo sapiens) (UniProt P08908); conditions: Compound concentration 10.0 uM
[4] = molecular target: 5-hydroxytryptamine receptor 1D (Homo sapiens) (UniProt P28221); conditions: Compound concentration 10.0 uM
[5] = molecular target: 5-hydroxytryptamine receptor 1E (Homo sapiens) (UniProt P28566); conditions: Compound concentration 10.0 uM
[6] = molecular target: 5-hydroxytryptamine receptor 2A (Homo sapiens) (UniProt P28223); conditions: Compound concentration 10.0 uM
5-hydroxytryptamine receptor 2A (Homo sapiens), sequence (P28223 whole entry): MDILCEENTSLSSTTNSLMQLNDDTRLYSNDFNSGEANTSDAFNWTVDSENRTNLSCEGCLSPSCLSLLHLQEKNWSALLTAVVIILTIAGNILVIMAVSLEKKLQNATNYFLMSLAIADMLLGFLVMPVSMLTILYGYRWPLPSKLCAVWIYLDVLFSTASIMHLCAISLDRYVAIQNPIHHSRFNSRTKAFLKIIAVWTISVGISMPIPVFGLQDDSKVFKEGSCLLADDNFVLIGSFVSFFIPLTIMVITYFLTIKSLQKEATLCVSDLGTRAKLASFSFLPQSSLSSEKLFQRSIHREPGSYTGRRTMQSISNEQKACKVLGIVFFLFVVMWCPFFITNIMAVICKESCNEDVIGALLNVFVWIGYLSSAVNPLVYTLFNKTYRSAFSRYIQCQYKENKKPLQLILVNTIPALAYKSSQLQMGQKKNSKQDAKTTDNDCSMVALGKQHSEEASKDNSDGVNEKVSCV

[7] = molecular target: 5-hydroxytryptamine receptor 2B (Homo sapiens) (UniProt P41595); conditions: Compound concentration 10.0 uM
5-hydroxytryptamine receptor 2B (Homo sapiens), sequence (P41595 whole entry): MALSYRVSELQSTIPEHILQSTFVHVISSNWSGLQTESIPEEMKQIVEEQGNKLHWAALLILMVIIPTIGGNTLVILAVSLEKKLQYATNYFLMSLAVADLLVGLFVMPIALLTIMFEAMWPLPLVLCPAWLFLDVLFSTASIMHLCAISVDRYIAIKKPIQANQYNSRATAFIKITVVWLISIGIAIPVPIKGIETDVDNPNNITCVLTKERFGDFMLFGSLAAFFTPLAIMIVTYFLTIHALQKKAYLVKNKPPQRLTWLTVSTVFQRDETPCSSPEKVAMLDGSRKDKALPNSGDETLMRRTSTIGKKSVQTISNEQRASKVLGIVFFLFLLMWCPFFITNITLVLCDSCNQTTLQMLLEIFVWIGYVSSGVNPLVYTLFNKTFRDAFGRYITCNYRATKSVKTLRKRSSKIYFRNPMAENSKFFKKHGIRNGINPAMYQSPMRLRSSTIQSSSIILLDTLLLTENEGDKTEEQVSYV

[8] = molecular target: 5-hydroxytryptamine receptor 2C (Homo sapiens) (UniProt P28335); conditions: Compound concentration 10.0 uM
[9] = molecular target: 5-hydroxytryptamine receptor 3A (Homo sapiens) (UniProt P46098); conditions: Compound concentration 10.0 uM
[10] = molecular target: 5-hydroxytryptamine receptor 5A (Homo sapiens) (UniProt P47898); conditions: Compound concentration 10.0 uM
5-hydroxytryptamine receptor 5A (Homo sapiens), sequence (P47898 whole entry): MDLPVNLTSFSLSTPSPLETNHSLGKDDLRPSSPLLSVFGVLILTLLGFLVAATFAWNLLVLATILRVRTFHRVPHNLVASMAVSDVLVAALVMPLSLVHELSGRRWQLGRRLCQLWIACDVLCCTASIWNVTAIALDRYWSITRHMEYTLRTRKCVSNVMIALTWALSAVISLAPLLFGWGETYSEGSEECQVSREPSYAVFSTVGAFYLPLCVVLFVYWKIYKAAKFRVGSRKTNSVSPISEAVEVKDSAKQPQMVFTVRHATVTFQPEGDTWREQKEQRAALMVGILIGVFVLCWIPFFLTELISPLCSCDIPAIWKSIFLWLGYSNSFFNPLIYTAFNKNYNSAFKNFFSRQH

[11] = molecular target: 5-hydroxytryptamine receptor 6 (Homo sapiens) (UniProt P50406); conditions: Compound concentration 10.0 uM
[12] = molecular target: 5-hydroxytryptamine receptor 7 (Homo sapiens) (UniProt P34969); conditions: Compound concentration 10.0 uM
[13] = molecular target: D(1A) dopamine receptor (Homo sapiens) (UniProt P21728); conditions: Compound concentration 10.0 uM
[14] = molecular target: D(2) dopamine receptor (Homo sapiens) (UniProt P14416); conditions: Compound concentration 10.0 uM
[15] = molecular target: T2, D(4) dopamine receptor (Homo sapiens) (UniProt P21917); conditions: Compound concentration 10.0 uM
T2 sequence (whole entry): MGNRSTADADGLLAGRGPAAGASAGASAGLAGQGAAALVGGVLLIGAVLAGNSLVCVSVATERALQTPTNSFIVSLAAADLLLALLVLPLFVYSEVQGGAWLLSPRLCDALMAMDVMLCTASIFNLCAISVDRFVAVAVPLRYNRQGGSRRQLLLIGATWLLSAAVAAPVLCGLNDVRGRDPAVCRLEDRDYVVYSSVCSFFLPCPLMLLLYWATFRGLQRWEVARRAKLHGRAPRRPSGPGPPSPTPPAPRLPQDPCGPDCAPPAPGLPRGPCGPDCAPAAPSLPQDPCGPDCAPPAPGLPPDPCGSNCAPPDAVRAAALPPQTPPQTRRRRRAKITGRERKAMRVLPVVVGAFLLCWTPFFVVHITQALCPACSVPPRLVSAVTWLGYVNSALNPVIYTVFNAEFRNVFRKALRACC

[16] = molecular target: Sodium-dependent serotonin transporter (Homo sapiens) (UniProt P31645); conditions: Compound concentration 10.0 uM
[17] = molecular target: Sodium-dependent noradrenaline transporter (Homo sapiens) (UniProt P23975); conditions: Compound concentration 10.0 uM
[18] = molecular target: T1, Sodium-dependent dopamine transporter; conditions: Compound concentration 10.0 uM
[19] = molecular target: Mu-type opioid receptor (Homo sapiens) (UniProt P35372); conditions: Compound concentration 10.0 uM
Mu-type opioid receptor (Homo sapiens), sequence (P35372 whole entry): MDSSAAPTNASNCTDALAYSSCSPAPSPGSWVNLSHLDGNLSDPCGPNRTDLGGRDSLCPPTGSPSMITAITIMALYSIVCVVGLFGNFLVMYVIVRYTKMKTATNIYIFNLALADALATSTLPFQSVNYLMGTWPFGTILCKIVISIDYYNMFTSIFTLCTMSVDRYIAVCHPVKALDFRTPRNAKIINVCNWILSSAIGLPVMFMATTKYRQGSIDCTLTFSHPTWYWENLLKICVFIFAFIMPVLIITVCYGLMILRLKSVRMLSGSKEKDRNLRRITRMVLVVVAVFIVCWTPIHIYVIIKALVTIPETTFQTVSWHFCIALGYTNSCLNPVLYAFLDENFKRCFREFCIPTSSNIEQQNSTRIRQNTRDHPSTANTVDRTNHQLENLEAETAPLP

[20] = molecular target: Delta-type opioid receptor (Homo sapiens) (UniProt P41143); conditions: Compound concentration 10.0 uM
Delta-type opioid receptor (Homo sapiens), sequence (P41143 whole entry): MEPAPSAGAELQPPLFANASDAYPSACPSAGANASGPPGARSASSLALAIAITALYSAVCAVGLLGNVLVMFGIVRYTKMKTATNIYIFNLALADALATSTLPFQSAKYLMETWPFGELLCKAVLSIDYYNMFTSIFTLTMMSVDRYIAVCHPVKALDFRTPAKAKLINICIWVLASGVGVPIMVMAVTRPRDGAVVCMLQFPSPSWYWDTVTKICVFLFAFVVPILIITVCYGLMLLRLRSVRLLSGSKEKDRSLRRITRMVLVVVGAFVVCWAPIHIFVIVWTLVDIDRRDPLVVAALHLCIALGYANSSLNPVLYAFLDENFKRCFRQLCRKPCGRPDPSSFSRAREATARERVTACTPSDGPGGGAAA

[21] = molecular target: Kappa-type opioid receptor (Homo sapiens) (UniProt P41145); conditions: Compound concentration 10.0 uM
[22] = molecular target: T3, GABA-A receptor; anion channel (Rattus norvegicus) (UniProt O09028+P15431+P18506+P18508+P19969+P20236+P23574+P23576+P28471+P28473+P30191+P62813+P63079+P63138+Q91ZM7+Q9ES14); conditions: Compound concentration 10.0 uM
[23] = molecular target: Histamine H1 receptor (Homo sapiens) (UniProt P35367); conditions: Compound concentration 10.0 uM
[24] = molecular target: Histamine H2 receptor (Homo sapiens) (UniProt P25021); conditions: Compound concentration 10.0 uM
[25] = molecular target: Histamine H3 receptor (Homo sapiens) (UniProt Q9Y5N1); conditions: Compound concentration 10.0 uM
Histamine H3 receptor (Homo sapiens), sequence (Q9Y5N1 whole entry): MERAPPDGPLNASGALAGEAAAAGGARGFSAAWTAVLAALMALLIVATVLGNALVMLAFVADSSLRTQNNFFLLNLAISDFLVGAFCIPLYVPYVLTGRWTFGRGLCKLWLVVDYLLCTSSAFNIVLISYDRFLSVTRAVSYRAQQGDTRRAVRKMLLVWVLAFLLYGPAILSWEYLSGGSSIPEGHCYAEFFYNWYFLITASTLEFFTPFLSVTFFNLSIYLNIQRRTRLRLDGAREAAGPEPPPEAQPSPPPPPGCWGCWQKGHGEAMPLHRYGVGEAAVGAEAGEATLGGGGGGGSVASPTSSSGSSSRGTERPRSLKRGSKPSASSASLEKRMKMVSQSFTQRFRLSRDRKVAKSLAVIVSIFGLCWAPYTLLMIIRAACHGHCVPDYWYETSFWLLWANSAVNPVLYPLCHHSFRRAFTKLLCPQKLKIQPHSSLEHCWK

[26] = molecular target: Alpha-1A adrenergic receptor (Homo sapiens) (UniProt P35348); conditions: Compound concentration 10.0 uM
[27] = molecular target: Alpha-1B adrenergic receptor (Homo sapiens) (UniProt P35368); conditions: Compound concentration 10.0 uM
[28] = molecular target: Alpha-2A adrenergic receptor (Homo sapiens) (UniProt P08913); conditions: Compound concentration 10.0 uM
Alpha-2A adrenergic receptor (Homo sapiens), sequence (P08913 whole entry): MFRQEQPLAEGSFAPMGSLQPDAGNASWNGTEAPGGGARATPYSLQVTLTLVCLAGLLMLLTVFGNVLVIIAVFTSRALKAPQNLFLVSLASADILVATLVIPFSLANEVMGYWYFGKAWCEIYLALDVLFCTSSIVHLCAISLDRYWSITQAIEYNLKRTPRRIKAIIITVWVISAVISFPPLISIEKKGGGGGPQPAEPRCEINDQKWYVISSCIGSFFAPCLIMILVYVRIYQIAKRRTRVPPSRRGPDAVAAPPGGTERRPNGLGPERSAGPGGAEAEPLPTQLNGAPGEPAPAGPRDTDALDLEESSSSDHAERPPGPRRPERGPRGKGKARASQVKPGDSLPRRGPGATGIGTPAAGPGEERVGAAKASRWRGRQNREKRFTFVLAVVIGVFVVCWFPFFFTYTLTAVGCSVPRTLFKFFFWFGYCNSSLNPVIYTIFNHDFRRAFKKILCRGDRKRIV

[29] = molecular target: Alpha-2B adrenergic receptor (Homo sapiens) (UniProt P18089); conditions: Compound concentration 10.0 uM
[30] = molecular target: Alpha-2C adrenergic receptor (Homo sapiens) (UniProt P18825); conditions: Compound concentration 10.0 uM
[31] = molecular target: Beta-2 adrenergic receptor (Homo sapiens) (UniProt P07550); conditions: Compound concentration 10.0 uM
[32] = molecular target: Muscarinic acetylcholine receptor M1 (Homo sapiens) (UniProt P11229); conditions: Compound concentration 10.0 uM
[33] = molecular target: Muscarinic acetylcholine receptor M2 (Homo sapiens) (UniProt P08172); conditions: Compound concentration 10.0 uM
Muscarinic acetylcholine receptor M2 (Homo sapiens), sequence (P08172 whole entry): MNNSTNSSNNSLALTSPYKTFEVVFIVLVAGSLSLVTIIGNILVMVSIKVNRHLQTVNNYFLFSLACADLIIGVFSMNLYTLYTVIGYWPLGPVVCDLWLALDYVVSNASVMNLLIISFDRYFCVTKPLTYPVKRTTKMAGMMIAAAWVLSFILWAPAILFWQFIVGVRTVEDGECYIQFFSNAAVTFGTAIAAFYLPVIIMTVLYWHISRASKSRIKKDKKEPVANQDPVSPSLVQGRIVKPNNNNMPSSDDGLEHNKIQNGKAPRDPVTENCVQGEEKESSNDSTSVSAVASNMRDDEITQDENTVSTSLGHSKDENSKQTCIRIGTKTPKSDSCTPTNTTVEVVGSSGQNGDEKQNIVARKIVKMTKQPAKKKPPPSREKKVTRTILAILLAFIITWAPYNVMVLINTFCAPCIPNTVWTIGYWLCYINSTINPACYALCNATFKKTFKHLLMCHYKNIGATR

[34] = molecular target: Muscarinic acetylcholine receptor M3 (Homo sapiens) (UniProt P20309); conditions: Compound concentration 10.0 uM
[35] = molecular target: Muscarinic acetylcholine receptor M4 (Homo sapiens) (UniProt P08173); conditions: Compound concentration 10.0 uM
Muscarinic acetylcholine receptor M4 (Homo sapiens), sequence (P08173 whole entry): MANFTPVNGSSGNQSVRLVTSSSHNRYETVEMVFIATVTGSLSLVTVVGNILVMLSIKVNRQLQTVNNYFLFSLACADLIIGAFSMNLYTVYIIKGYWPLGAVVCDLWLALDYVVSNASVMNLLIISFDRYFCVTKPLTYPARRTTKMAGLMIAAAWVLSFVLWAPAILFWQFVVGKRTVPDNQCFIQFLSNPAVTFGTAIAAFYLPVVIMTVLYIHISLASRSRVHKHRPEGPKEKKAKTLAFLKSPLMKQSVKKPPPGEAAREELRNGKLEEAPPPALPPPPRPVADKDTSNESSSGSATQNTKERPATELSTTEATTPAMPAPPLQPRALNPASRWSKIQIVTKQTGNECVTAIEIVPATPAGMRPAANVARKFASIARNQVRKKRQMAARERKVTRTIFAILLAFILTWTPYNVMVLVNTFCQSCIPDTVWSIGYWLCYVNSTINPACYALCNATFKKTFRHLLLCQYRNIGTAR

[36] = molecular target: Muscarinic acetylcholine receptor M5 (Homo sapiens) (UniProt P08912); conditions: Compound concentration 10.0 uM
[37] = molecular target: T3, GABA-A receptor; anion channel (Rattus norvegicus); conditions: Compound concentration 10.0 uM; remark: listed apart in the source
Rattus norvegicus = organism: Rattus norvegicus; conditions: Compound concentration 10.0 uM
[38] = molecular target: Alpha-1D adrenergic receptor (Homo sapiens) (UniProt P25100); conditions: Compound concentration 10.0 uM
[39] = molecular target: Sigma intracellular receptor 2 (Homo sapiens) (UniProt Q5BJF2); conditions: Compound concentration 10.0 uM
Sigma intracellular receptor 2 (Homo sapiens), sequence (Q5BJF2 whole entry): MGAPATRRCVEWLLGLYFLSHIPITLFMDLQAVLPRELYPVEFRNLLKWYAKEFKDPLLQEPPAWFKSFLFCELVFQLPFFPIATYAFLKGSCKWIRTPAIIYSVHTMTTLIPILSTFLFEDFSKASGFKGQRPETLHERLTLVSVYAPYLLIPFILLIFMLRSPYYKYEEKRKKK

[40] = molecular target: Sigma non-opioid intracellular receptor 1 (Homo sapiens) (UniProt Q99720); conditions: Compound concentration 10.0 uM

T1 sequence (Q01959 whole entry): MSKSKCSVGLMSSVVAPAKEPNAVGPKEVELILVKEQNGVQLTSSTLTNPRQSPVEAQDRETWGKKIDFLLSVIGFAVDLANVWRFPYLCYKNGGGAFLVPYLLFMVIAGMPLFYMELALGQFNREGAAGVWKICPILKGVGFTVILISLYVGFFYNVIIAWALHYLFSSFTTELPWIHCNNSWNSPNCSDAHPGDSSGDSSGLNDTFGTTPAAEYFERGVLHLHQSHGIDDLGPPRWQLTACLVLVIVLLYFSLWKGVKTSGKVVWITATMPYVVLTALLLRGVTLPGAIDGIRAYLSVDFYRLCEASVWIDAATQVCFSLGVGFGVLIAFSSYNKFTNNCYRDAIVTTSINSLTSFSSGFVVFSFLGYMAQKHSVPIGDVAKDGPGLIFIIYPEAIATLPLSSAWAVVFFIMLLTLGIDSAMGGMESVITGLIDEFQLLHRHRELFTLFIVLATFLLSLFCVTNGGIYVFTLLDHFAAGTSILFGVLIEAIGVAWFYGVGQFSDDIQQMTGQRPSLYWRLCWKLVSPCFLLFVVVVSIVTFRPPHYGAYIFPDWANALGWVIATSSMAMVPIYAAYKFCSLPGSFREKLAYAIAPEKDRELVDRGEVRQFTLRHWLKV

- Ki ([1]; read-out: Ki): 4.27 µM
- Ki ([1]; read-out: pKi (converted)): 4.27 µM
- IC50 [2]: > 10 µM (not active)
- inhibition [3]: 40.6%
- inhibition [4]: 6.7%
- inhibition [5]: 2.45%
- inhibition [6]: -1.79%
- inhibition [7]: 47.5%
- inhibition [8]: 11.6%
- inhibition [9]: 10.3%
- inhibition [10]: 5.35%
- inhibition [11]: 24.2%
- inhibition [12]: 2.32%
- inhibition [13]: 1.22%
- inhibition [14]: 1.12%
- inhibition [15]: 4.15%
- inhibition [16]: 18.1%
- inhibition [17]: 1.7%
- inhibition [18]: 80.5%
- inhibition [19]: 22.4%
- inhibition [20]: 8.58%
- inhibition [21]: 9.53%
- inhibition [22]: 3.61%
- inhibition [23]: 24.5%
- inhibition [24]: -1.35%
- inhibition [25]: -1.1%
- inhibition [26]: 22.8%
- inhibition [27]: -7.86%
- inhibition [28]: 13%
- inhibition [29]: 3.36%
- inhibition [30]: 2.96%
- inhibition [31]: 6.22%
- inhibition [32]: 0.25%
- inhibition [33]: 13.4%
- inhibition [34]: 7.05%
- inhibition [35]: 3.63%
- inhibition [36]: -6.93%
- inhibition [37]: 13.5%
- inhibition (Rattus norvegicus): 27.9%
- inhibition [38]: 7.27%
- inhibition [39]: 70.6%
- inhibition [40]: 31.5%
Structure (SMILES): CN(C)C(=O)c1sc2nc(N3CCC(S(C)(=O)=O)CC3)cc(C(F)(F)F)c2c1N [BI-5026]
